Laboratory results published in ChEMBL document CHEMBL3112404, “Click chemistry inspired facile synthesis and bioevaluation of novel triazolyl analogs of Ludartin” (Bioorg Med Chem Lett, 2014).

Key:
MCF7 [1] = assay: Cytotoxicity against human MCF7 cells assessed as growth inhibition at 50 uM by colorimetric sulphorhodamine B assay; assay type: functional; details: read-out: GI
HCT-116 [2] = assay: Cytotoxicity against human HCT116 cells assessed as growth inhibition at 50 uM by colorimetric sulphorhodamine B assay; assay type: functional; details: read-out: GI
PC-3 [3] = assay: Cytotoxicity against human PC3 cells assessed as growth inhibition at 50 uM by colorimetric sulphorhodamine B assay; assay type: functional; details: read-out: GI
A549 [4] = assay: Cytotoxicity against human A549 cells assessed as growth inhibition at 50 uM by colorimetric sulphorhodamine B assay; assay type: functional; details: read-out: GI
T98G [5] = assay: Cytotoxicity against human T98G cells assessed as growth inhibition at 50 uM by colorimetric sulphorhodamine B assay; assay type: functional; details: read-out: GI
MCF7 [6] = assay: Cytotoxicity against human MCF7 cells assessed as growth inhibition by colorimetric sulphorhodamine B assay; assay type: functional, cell-based
HCT-116 [7] = assay: Cytotoxicity against human HCT116 cells assessed as growth inhibition by colorimetric sulphorhodamine B assay; assay type: functional, cell-based
PC-3 [8] = assay: Cytotoxicity against human PC3 cells assessed as growth inhibition by colorimetric sulphorhodamine B assay; assay type: functional, cell-based
A549 [9] = assay: Cytotoxicity against human A549 cells assessed as growth inhibition by colorimetric sulphorhodamine B assay; assay type: functional, cell-based
T98G [10] = assay: Cytotoxicity against human T98G cells assessed as growth inhibition by colorimetric sulphorhodamine B assay; assay type: functional, cell-based

| SMILES | inhibition of growth at 50 µM (MCF7 [1]) | inhibition of growth at 50 µM (HCT-116 [2]) | inhibition of growth at 50 µM (PC-3 [3]) | inhibition of growth at 50 µM (A549 [4]) | inhibition of growth at 50 µM (T98G [5]) | IC50 (MCF7 [6]) | IC50 (HCT-116 [7]) | IC50 (PC-3 [8]) | IC50 (A549 [9]) | IC50 (T98G [10]) |
| --- | --- | --- | --- | --- | --- | --- | --- | --- | --- | --- |
| COc1ccc(-n2cc(CNC[C@@H]3C(=O)O[C@H]4[C@H]3CCC(C)=C3C[C@H]5O[C@@]5(C)[C@@H]34)nn2)cc1 | 0% | 0% | 0% | 20% | 0% | – | – | – | – | – |
| CC1=C2C[C@H]3O[C@@]3(C)[C@@H]2[C@H]2OC(=O)[C@@H](CNCc3cn(-c4ccccc4[N+](=O)[O-])nn3)[C@@H]2CC1 | 0% | 0% | 0% | 17% | 0% | – | – | – | – | – |
| CC1=C2C[C@H]3O[C@@]3(C)[C@@H]2[C@H]2OC(=O)[C@@H](CNCc3cn(-c4cccc([N+](=O)[O-])c4)nn3)[C@@H]2CC1 | 0% | 0% | 0% | 0% | 0% | – | – | – | – | – |
| CC1=C2C[C@H]3O[C@@]3(C)[C@@H]2[C@H]2OC(=O)[C@@H](CNCc3cn(-c4ccc([N+](=O)[O-])cc4)nn3)[C@@H]2CC1 | 0% | 0% | 0% | 26% | 0% | – | – | – | – | – |
| CC1=C2C[C@H]3O[C@@]3(C)[C@@H]2[C@H]2OC(=O)[C@@H](CNCc3cn(-c4ccccc4C#N)nn3)[C@@H]2CC1 | 12% | 20% | 22% | 46% | 42% | – | – | – | – | – |
| CC1=C2C[C@H]3O[C@@]3(C)[C@@H]2[C@H]2OC(=O)[C@@H](CNCc3cn(-c4cccc(C#N)c4)nn3)[C@@H]2CC1 | 0% | 0% | 0% | 10% | 0% | – | – | – | – | – |
| CC1=C2C[C@H]3O[C@@]3(C)[C@@H]2[C@H]2OC(=O)[C@@H](CNCc3cn(-c4ccc(C#N)cc4)nn3)[C@@H]2CC1 | 0% | 0% | 0% | 0% | 0% | – | – | – | – | – |
| CC1=C2C[C@H]3O[C@@]3(C)[C@@H]2[C@H]2OC(=O)[C@@H](CNCc3cn(-c4ccc(F)cc4F)nn3)[C@@H]2CC1 | 29% | 0% | 21% | 19% | 12% | – | – | – | – | – |
| CC1=C2C[C@H]3O[C@@]3(C)[C@@H]2[C@H]2OC(=O)[C@@H](CNCc3cn(-c4cccc(CO)c4)nn3)[C@@H]2CC1 | 13% | 11% | 0% | 47% | 0% | – | – | – | – | – |
| CC1=C2C[C@H]3O[C@@]3(C)[C@@H]2[C@H]2OC(=O)[C@@H](CNCc3cn(-c4ccc(C)c(C)c4)nn3)[C@@H]2CC1 | 84% | 49% | 46% | 73% | 99% | 8.5 µM | 39 µM | 38 µM | 11 µM | 12 µM |
| CC1=C2C[C@H]3O[C@@]3(C)[C@@H]2[C@H]2OC(=O)[C@@H](CNCc3cn(-c4cc(Cl)c(Cl)cc4Cl)nn3)[C@@H]2CC1 | 81% | 74% | 73% | 91% | 77% | 12 µM | 18 µM | 11 µM | 21 µM | 17 µM |
| CC1=C2C[C@H]3O[C@@]3(C)[C@@H]2[C@H]2OC(=O)[C@@H](CNCc3cn(-c4ccccc4)nn3)[C@@H]2CC1 | 77% | 58% | 56% | 77% | 73% | 21 µM | 37 µM | 54 µM | 24 µM | 21 µM |
| CC1=C2C[C@H]3O[C@@]3(C)[C@@H]2[C@H]2OC(=O)[C@@H](CNCc3cn(-c4cccc5ccccc45)nn3)[C@@H]2CC1 | 0% | 48% | 8% | 21% | 32% | – | – | – | – | – |
| CC1=C2C[C@H]3O[C@@]3(C)[C@@H]2[C@H]2OC(=O)[C@@H](CNCc3cn(-c4ccccc4Cl)nn3)[C@@H]2CC1 | 12% | 6% | 28% | 32% | 37% | – | – | – | – | – |
| CC1=C2C[C@H]3O[C@@]3(C)[C@@H]2[C@H]2OC(=O)[C@@H](CNCc3cn(-c4ccccc4Br)nn3)[C@@H]2CC1 | 22% | 79% | 0% | 68% | 17% | – | 26 µM | – | 24 µM | – |
| CC1=C2C[C@H]3O[C@@]3(C)[C@@H]2[C@H]2OC(=O)[C@@H](CNCc3cn(-c4ccc(Br)cc4)nn3)[C@@H]2CC1 | 79% | 72% | 28% | 74% | 58% | 32 µM | 35 µM | – | 39 µM | 52 µM |
| COc1ccccc1-n1cc(CNC[C@@H]2C(=O)O[C@H]3[C@H]2CCC(C)=C2C[C@H]4O[C@@]4(C)[C@@H]23)nn1 | 0% | 38% | 40% | 21% | 34% | – | – | – | – | – |
| COc1cccc(-n2cc(CNC[C@@H]3C(=O)O[C@H]4[C@H]3CCC(C)=C3C[C@H]5O[C@@]5(C)[C@@H]34)nn2)c1 | 6% | 0% | 0% | 8% | 0% | – | – | – | – | – |
| C=C1C(=O)O[C@H]2[C@H]1CCC(C)=C1C[C@H]3O[C@@]3(C)[C@@H]12 [LUDARTIN] | 100% | 97% | 97% | 97% | 97% | 0.5 µM | – | – | – | 6.3 µM |
